# Laboratory results from publication PMC12299174, “Design, Synthesis, and Evaluation of 1-Benzylpiperidine and 1-Benzoylpiperidine Derivatives as Dual-Target Inhibitors of Acetylcholinesterase and Serotonin Transporter for Alzheimer′s Disease” (Molecules, 2025).
# Counter-ions that a name gives are not always drawn. Like-named read-outs stand apart in the source and are kept apart here.
# What was measured:
# AChE = AChE (Homo sapiens, UniProt P22303); assay: biochemical; details: means ± SD of three determinations, 30 min preincubation at 25 °C, pH 7.5
# BuChE = BuChE (Homo sapiens, UniProt P06276); assay: biochemical
# h-SERT = target: T1, h-SERT (Homo sapiens, UniProt P31645); assay: biochemical; format: binding; details: displacement of 2 nM [3H]-paroxetine, HEK293 membranes, Cheng-Prusoff
# T1 construct: purchased Perkin-Elmer RBHSTM400UA; host or cells: HEK293 membranes
# Protocol: Competitive binding studies were conducted on homogenized membranes prepared from the human clonal cell line HEK293 for h-SERT. […] The inhibitory activity on AChE or butyrylcholinesterase (BuChE), which has also been regarded as a relevant cholinesterase target in AD [23], was determined using the spectrophotometric method, as described by Ellman, modified from Mella (Section 3.3).
# The cellular background HEK293 containing 400 µL of h-SERT (Code RBHSTM400UA, Perkin-Elmer, Santiago, Chile) was diluted in 12 Eppendorf tubes, containing a storage buffer solution of Tris-HCl 50 mM (pH 7.4), EDTA 0.5 mM, MgCl2 10 mM, and 10% sucrose, obtaining a final volume between 260 and 340 µL, which was finally stored at −80 °C [27]. […] Non-specific binding was determined using […] fluoxetine. After 30 min at 27 °C, the incubation was stopped by rapid filtration on a Whatman GF/C filter preabsorbed in 0.5% polyethylenimine (PEI), washed with cold working buffer solution, 3 × 3 mL, filtered, and scintillation liquid was added.
# human AChE; h-AChE = details: read-out: IC50 in human AChE (h-AChE); ref [14],[15],[16]; cited from earlier work
# [1] = means ± SD of three determinations, 30 min preincubation at 25 °C, pH 7.5, read-out: BuChE IC50
# Sequence of AChE (P22303 32-614): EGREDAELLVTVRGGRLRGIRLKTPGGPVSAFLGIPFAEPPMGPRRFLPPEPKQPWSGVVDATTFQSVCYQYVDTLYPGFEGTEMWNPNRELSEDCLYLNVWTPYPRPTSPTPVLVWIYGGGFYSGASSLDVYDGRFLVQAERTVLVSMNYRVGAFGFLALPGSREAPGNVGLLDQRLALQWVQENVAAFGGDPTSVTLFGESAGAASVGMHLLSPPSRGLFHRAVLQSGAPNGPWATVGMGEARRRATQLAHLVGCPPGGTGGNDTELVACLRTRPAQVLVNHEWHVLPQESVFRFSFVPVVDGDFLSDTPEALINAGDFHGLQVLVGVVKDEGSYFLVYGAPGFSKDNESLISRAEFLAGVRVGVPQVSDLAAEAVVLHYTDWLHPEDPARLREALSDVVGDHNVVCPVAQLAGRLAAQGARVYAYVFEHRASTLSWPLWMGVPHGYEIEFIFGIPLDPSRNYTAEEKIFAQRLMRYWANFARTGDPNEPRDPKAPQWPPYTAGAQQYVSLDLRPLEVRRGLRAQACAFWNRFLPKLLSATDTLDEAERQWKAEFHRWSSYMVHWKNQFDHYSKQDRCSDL
# T1 sequence (P31645 whole entry): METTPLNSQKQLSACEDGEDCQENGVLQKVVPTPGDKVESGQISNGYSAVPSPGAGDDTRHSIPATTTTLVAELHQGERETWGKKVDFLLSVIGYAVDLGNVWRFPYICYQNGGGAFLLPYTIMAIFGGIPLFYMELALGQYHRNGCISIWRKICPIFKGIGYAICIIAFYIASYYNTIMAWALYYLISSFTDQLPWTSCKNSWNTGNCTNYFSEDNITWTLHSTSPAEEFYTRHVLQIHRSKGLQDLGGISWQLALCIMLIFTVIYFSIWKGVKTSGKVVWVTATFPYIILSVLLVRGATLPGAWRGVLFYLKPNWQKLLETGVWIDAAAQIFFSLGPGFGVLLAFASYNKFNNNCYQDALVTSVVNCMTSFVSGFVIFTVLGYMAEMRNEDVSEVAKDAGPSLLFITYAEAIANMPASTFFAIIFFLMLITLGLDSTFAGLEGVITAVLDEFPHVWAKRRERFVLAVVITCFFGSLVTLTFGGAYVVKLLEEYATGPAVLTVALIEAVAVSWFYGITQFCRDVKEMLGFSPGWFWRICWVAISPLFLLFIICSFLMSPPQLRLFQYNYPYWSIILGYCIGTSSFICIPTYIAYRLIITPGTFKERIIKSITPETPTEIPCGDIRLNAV
# Sequence of BuChE (P06276 29-602): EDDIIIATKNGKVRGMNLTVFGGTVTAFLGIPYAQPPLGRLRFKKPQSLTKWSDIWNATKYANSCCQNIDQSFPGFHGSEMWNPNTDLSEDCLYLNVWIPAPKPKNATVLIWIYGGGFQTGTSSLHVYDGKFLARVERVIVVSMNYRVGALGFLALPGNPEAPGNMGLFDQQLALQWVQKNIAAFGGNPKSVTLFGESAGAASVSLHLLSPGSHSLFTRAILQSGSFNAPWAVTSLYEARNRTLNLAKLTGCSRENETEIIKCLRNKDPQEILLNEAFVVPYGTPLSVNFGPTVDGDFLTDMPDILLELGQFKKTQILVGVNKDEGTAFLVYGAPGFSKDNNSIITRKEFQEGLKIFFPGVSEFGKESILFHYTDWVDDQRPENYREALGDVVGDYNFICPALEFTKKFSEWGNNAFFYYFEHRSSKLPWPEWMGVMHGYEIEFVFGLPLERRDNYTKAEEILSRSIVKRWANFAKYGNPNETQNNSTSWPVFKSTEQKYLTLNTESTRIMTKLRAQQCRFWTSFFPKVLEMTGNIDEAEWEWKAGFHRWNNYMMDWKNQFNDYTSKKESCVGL
Compound,IC50 (AChE; read-out: AChE IC50) [µM],IC50 (BuChE; [1]) [µM],Ki (h-SERT) [µM],IC50 (human AChE; h-AChE) [µM],IC50 (AChE; AChE IC50 (µM)) [µM],IC50 (BuChE) [µM]
"COc1cccc(C(=O)N2CCC(CN3CCc4cc(OC)c(OC)cc4C3)CC2)c1 [Compound 16, (4-((6,7-Dimethoxy-3,4-dihydroisoquinolin-2(1H)-yl)methyl)piperidin-1-yl)(3-methoxyphenyl)methanone]",439 ± 28,> 500,1.59 ± 0.58,,,
"O=C(OCC1CCN(Cc2ccccc2)CC1)C(c1ccccc1)c1ccccc1 [Compound 21, (1-Benzylpiperidin-4-yl)methyl-2,2-diphenylacetate]",> 500,6.16 ± 0.29,25.5 ± 1.01,,,
"COc1cc2c(cc1OC)CN(CC1CCN(C(=O)c3ccccc3)CC1)CC2 [Compound 12, (4-((6,7-Dimethoxy-3,4-dihydroisoquinolin-2(1H)-yl)methyl)piperidin-1-yl)(phenyl)methanone]",290 ± 10.9,> 500,2.62 ± 0.82,,,
"O=C(Cc1ccc(Cl)cc1)OCC1CCN(Cc2ccccc2)CC1 [Compound 20, (1-Benzylpiperidin-4-yl)methyl-2-(4-chlorophenyl)acetate]",259 ± 14.6,> 500,> 100,,,
"COc1cc2c(cc1OC)CN(CC1CCN(C(=O)c3cccc(Br)c3)CC1)CC2 [Compound 15, (3-Bromophenyl)(4-((6,7-dimethoxy-3,4-dihydroisoquinolin-2(1H)-yl)methyl)piperidin-1-yl)methanone]",242 ± 24.4,> 500,1.47 ± 0.73,,,
"COc1cc2c(cc1OC)CN(C(=O)C1CCN(Cc3cccc(Cl)c3)CC1)CC2 [Compound 9, (1-(3-Chlorobenzyl)piperidin-4-yl)(6,7-dimethoxy-3,4-dihydroisoquinolin-2(1H)-yl)methanone]",34.5 ± 1.97,268 ± 13.8,> 100,,,
"COc1ccc2c3c1O[C@H]1C[C@@H](O)C=C[C@@]31CCN(C)C2 [GAL, Galantamine hydrobromide]",,,,18.6,,
"O=C(Cc1ccc(F)cc1)OCC1CCN(Cc2ccccc2)CC1 [Compound 19, (1-Benzylpiperidin-4-yl)methyl-2-(4-fluorophenyl)acetate]",5.1 ± 0.24,26.8 ± 0.81,,,,
"COc1cc2c(cc1OC)CN(CC1CCN(C(=O)c3cccc(F)c3)CC1)CC2 [Compound 13, (4-((6,7-Dimethoxy-3,4-dihydroisoquinolin-2(1H)-yl)methyl)piperidin-1-yl)(3-fluorophenyl)methanone]",> 500,> 500,1.91 ± 0.77,,,
"COc1cc2c(cc1OC)CN(C(=O)C1CCN(Cc3cccc(Br)c3)CC1)CC2 [Compound 10, (1-(3-Bromobenzyl)piperidin-4-yl)(6,7-dimethoxy-3,4-dihydroisoquinolin-2(1H)-yl)methanone]",28.3 ± 0.87,426 ± 28.6,> 100,,,
"O=C(Cc1ccccc1)OCC1CCN(Cc2ccccc2)CC1 [Compound 18, (1-Benzylpiperidin-4-yl)methyl-2-phenylacetate]",,,27.1 ± 3.4,,200 ± 8.61,256 ± 5.03
"COc1cc2c(cc1OC)CN(C(=O)C1CCN(Cc3ccc(Cl)cc3Cl)CC1)CC2 [Compound 11, (1-(2,4-Dichlorobenzyl)piperidin-4-yl)(6,7-dimethoxy-3,4-dihydroisoquinolin-2(1H)-yl)methanone]",> 500,> 500,> 100,,,
"O=C(OCC1CCN(Cc2ccccc2)CC1)c1ccc2ccccc2c1 [Compound 22, (1-Benzylpiperidin-4-yl)methyl-2-naphthoate]",61.7 ± 2.56,59.3 ± 1.42,26.9 ± 2.57,,,
"COc1cc2c(cc1OC)CN(CC1CCN(C(=O)c3cccc(Cl)c3)CC1)CC2 [Compound 14, (3-Chlorophenyl)(4-((6,7-dimethoxy-3,4-dihydroisoquinolin-2(1H)-yl)methyl)piperidin-1-yl)methanone]",> 500,> 500,2.43 ± 0.24,,,
"COc1cc2c(cc1OC)CN(C(=O)C1CCN(Cc3ccccc3)CC1)CC2 [Compound 7, (1-Benzylpiperidin-4-yl)(6,7-dimethoxy-3,4-dihydroisoquinolin-2(1H)-yl)methanone]",34.4 ± 0.51,> 500,> 100,,,
"COc1cc2c(cc1OC)CN(C(=O)C1CCN(Cc3cccc(F)c3)CC1)CC2 [Compound 8, (6,7-Dimethoxy-3,4-dihydroisoquinolin-2(1H)-yl)(1-(3-fluorobenzyl)piperidin-4-yl)methanone]",41.2 ± 3.17,> 500,> 100,,,
